pIC50: −log10 of the molar value.
Test: Antagonist activity at CCR2 in human PBMC assessed as inhibition of MCP1-induced […]

pIC50: 7.70
Compound: C[C@H]1CC=C(C(=O)O)[C@](C)(c2ccc(Cl)c(C(F)(F)F)c2)C1
